As a reminder, the IC50 is the concentration that inhibits the measured activity by half.

Structures can show the parent of a compound that is named as a salt.

The results in this text go back to patent US20240376076A1, “INHIBITORS TARGETING UBIQUITIN SPECIFIC PROTEASE 7 (USP7)” (Dana-Farber Cancer Institute, Inc., priority 2021, published 2024).

In this assay the target is T1, USP7, Active human recombinant protein (Homo sapiens, UniProt Q93009).
T1 construct: purchased CP Lot; 20200225001
The assay is described as follows: USP7 assay (Ubiquitin-Rhodamine 110 enzymatic assay). The note with it: read-out: IC50. The class given is biochemical. The method, then:
Enzymatic Assays with Exemplary USP7 Irreversible Inhibitors
ND refers to not disclosed.
USP7, Active human recombinant protein (CP, Lot. 20200225001), Ubiquitin-Rhodamine 110 (Rh110) (BostonBiochem, Cat. No. U-555), DMSO (Sigma, Cat. N34869), DTT (Sangon Biotech, Cat. No. A620058-0005), […] Tris pH 8.0 (Sigma, Cat. No. T2694-1L), Tween-20 (Sigma, Cat. No. P2287-100ML), EDTA (Invitrogen, Cat. No. 15575020, BSA (Sigma, Cat. No. B2064-100G), 384-well assay plate (Corning, Cat. No. 3573), Echo Qualified 384-Well Polypropylene Microplate 2.0, Clear, Flat Bottom (LABCYTE, Cat. No. 001-14555).
Dilute the compounds to 400× of the final desired highest inhibitor concentration in reaction by 100% DMSO. For all compounds, transfer the compounds to one well in a 384-well Echo plate and serially dilute the compound by 3-fold dilution of 100% DMSO in the next well and so forth for a total of 10 concentrations by Precision. Add 30 μL of 100% DMSO to two empty wells for no compound control and no enzyme control in the same 384-well Echo plate. Make the plate as a source plate.
For USP7 assay, transfer 50 nL of each well from the source plate to a 384-well assay plate (OptiPlate TM-384 F black assay plates) by Echo 550 Liquid Handler.
Added appropriate amount of USP7 in 1× assay Buffer to prepare 2× enzyme solution (USP7 final concentration: 0.05 nM). Added appropriate amount of Ubiquitin-Rhodamine 110 in 1× assay Buffer to prepare 2× substrate solution (Ubiquitin-Rhodamine 110 final concentration: 190 nM). Added 10 μL of 2× enzyme solution to each reaction well of the 384-well assay plate, except for control wells without enzyme (add 10 μL of 1× Assay Buffer instead as for low control). […] Transferred 2× substrate solution to the assay plate. Added 10 μL of 2× substrate solution to each well of the 384-well assay plate to start reaction. Centrifuged at 1000 rpm for 1 min. Read the plate kinetically on SpectraMax Paradigm for 20 min with excitation at 485 nm and emission at 535 nm. Copied raw data (slope) from Reader to obtain inhibition values in Excel using equation (1): […]
Max signal was obtained from the action of Enzyme and Substrate. Min signal was obtained from the Substrate only. To fit the data in XLFit excel add-in version 5.4.0.8 to obtain IC50 values used equation (2): […]
Y is % inhibition and X is compound concentration.

T1 sequence (Q93009 whole entry): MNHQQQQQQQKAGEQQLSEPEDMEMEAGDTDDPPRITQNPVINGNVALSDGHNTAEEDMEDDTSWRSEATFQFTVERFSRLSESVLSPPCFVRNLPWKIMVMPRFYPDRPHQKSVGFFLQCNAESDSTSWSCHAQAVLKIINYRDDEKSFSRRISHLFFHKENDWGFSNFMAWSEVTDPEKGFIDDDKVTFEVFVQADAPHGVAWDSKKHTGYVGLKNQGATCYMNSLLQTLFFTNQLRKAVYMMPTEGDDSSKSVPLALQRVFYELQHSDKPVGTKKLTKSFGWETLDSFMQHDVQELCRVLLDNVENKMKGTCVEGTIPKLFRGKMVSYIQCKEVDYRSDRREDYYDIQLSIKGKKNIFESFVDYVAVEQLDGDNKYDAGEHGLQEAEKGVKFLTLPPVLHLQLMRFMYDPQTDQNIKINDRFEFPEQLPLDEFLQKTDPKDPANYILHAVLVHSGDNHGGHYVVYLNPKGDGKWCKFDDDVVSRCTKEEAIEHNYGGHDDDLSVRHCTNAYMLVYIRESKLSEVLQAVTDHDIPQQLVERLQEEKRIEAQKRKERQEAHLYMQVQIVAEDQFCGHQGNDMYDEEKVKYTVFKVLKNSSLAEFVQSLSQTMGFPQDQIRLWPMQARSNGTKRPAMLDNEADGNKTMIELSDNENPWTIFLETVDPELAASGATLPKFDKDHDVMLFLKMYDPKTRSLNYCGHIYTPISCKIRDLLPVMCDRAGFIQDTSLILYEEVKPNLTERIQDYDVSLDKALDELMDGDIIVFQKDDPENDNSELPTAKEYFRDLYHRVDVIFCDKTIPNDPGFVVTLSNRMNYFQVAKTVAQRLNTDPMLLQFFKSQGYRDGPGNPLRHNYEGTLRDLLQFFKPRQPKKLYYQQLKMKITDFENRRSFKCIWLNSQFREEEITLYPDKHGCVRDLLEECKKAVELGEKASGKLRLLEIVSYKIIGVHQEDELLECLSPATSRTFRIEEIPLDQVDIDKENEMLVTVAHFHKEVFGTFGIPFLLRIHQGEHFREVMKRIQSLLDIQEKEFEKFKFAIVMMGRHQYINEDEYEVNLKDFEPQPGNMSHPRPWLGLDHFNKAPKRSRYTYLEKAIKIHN

Consider `CN(C)CCC(=O)Nc1ccc2c(=O)n(CC3(O)CCN(C(=O)C(CCCNC(=O)c4cc5c(Cl)ccnc5[nH]4)Cc4ccccc4)CC3)cnc2c1` (stereo not drawn) [Compound 48, N-(4-benzyl-5-(4-((7-(3-(dimethylamino)propanamido)-4-oxoquinazolin-3(4H)-yl)methyl)-4-hydroxypiperidin-1-yl)-5-oxopentyl)-4-chloro-1H-pyrrolo[2,3-b]pyridine-2-carboxamide], for which the IC50 was more than 1 µM.

Turning to `CN(C)CCC(=O)Nc1ccc2c(=O)n(CC3(O)CCN(C(=O)[C@@H]4CN(CCNC(=O)c5ccc6c(Cl)ccnc6c5)C[C@H]4c4ccccc4)CC3)cnc2c1` [Compound 76], the IC50 was in the range of 0.1 to 1 µM.

As for `CN(C)CC(=O)Nc1ccc2c(=O)n(CC3(O)CCN(C(=O)[C@H]4CC[C@@H](NC(=O)c5ccc6c(Cl)ccnc6c5)CC4)CC3)cnc2c1` [Compound 34, 4-chloro-N-((1s,4s)-4-(4-((7-(2-(dimethylamino)acetamido)-4-oxoquinazolin-3(4H)-yl)methyl)-4-hydroxypiperidine-1-carbonyl)cyclohexyl)quinoline-7-carboxamide], the IC50 is more than 1 µM.

Turning to `CN(C)CCCNc1ccc2c(=O)n(CC3(O)CCN(C(=O)[C@H](CCCNC(=O)c4ccc5c(Cl)cc(C6CC6)nc5c4)Cc4ccccc4)CC3)cnc2c1` [Compound 136], the half-inhibitory concentration (IC50) was less than 0.02 µM.

In the case of `Cn1c(=O)n(CC2(O)CCN(C(=O)C(CCCNC(=O)c3ccc4c(Cl)ccnc4c3)Cc3ccccc3)CC2)c2cnccc21` (stereo not drawn) [Compound 37, N-(4-benzyl-5-(4-hydroxy-4-((1-methyl-2-oxo-1H-imidazo[4,5-c]pyridin-3(2H)-yl)methyl)piperidin-1-yl)-5-oxopentyl)-4-chloroquinoline-7-carboxamide], the IC50 was more than 1 µM.

As for `N[C@@H](c1ccc(-n2ncc3c(=O)n(CC4(O)CCN(C(=O)C(CCCNC(=O)c5ccc6c(Cl)ccnc6c5)Cc5ccccc5)CC4)cnc32)cc1)C(F)(F)F` (stereo partly drawn) [Compound 9, N-(5-(4-((1-(4-(1-amino-2,2,2-trifluoroethyl)phenyl)-4-oxo-1H-pyrazolo[3,4-d]pyrimidin-5(4H)-yl)methyl)-4-hydroxypiperidin-1-yl)-4-benzyl-5-oxopentyl)-4-chloroquinoline-7-carboxamide], the IC50 fell in the range of 0.02 to 0.1 µM.

Consider `C=CS(=O)(=O)Nc1ccccc1N1CCC(C(=O)N2CCC(O)(Cn3cnc4cc(NC(=O)CCN5CCN(C)CC5)ccc4c3=O)CC2)CC1` [Compound 92], for which the IC50 lay in the range of 0.02 to 0.1 µM.

With `CN(C)CC(=O)Nc1ccc2c(=O)n(CC3(O)CCN(C(=O)C4CCCC(NC(=O)c5ccc6c(Cl)ccnc6c5)C4)CC3)cnc2c1` (stereo not drawn) [Compound 36, 4-chloro-N-(3-(4-((7-(2-(dimethylamino)acetamido)-4-oxoquinazolin-3(4H)-yl)methyl)-4-hydroxypiperidine-1-carbonyl)cyclohexyl)quinoline-7-carboxamide], the IC50 was more than 1 µM.

Take `O=C(NCCN1CCC(C(=O)N2CCC(O)(Cn3cnc4cc(OCCN5CCNCC5)ccc4c3=O)CC2)C(c2ccccc2)C1)c1ccc2c(Cl)cc(C3CC3)nc2c1` (stereo not drawn) [Compound 107]: the IC50 was in the range of 0.02 to 0.1 µM.

Regarding `CN(C)CCC(=O)Nc1ccc2c(=O)n(CC3(O)CCN(C(=O)N(CCCNC(=O)c4ccc5c(Cl)ccnc5c4)Cc4ccccc4)CC3)cnc2c1` [Compound 83], the IC50 was more than 1 µM.

With `CN1CCN(CCC(=O)Nc2ccc3c(=O)n(CC4(O)CCN(C(=O)C(CCCNC(=O)c5ccc6c(Cl)cc(-c7cccc(CN)c7)nc6c5)Cc5ccccc5)CC4)cnc3c2)CC1` (stereo not drawn) [Compound 17, 2-(3-(aminomethyl)phenyl)-N-(4-benzyl-5-(4-hydroxy-4-((7-(3-(4-methylpiperazin-1-yl)propanamido)-4-oxoquinazolin-3(4H)-yl)methyl)piperidin-1-yl)-5-oxopentyl)-4-chloroquinoline-7-carboxamide hydrochloride], the half-maximal inhibitory concentration (IC50) lay within 0.02 to 0.1 µM.

On to `CN(C)CCC(=O)Nc1ccc2c(=O)n(CC3(O)CCN(C(=O)c4cnn(CCNC(=O)c5ccc6c(Cl)ccnc6c5)c4Cc4ccccc4)CC3)cnc2c1` [Compound 53, N-(2-(5-benzyl-4-(4-((7-(3-(dimethylamino)propanamido)-4-oxoquinazolin-3(4H)-yl)methyl)-4-hydroxypiperidine-1-carbonyl)-1H-pyrazol-1-yl)ethyl)-4-chloroquinoline-7-carboxamide], for which the concentration for half-maximal inhibition (IC50) was 0.1 to 1 µM.

On to `CN(C)CCC(=O)Nc1ccc2c(=O)n(CC3(O)CCN(C(=O)[C@H](CCCNC(=O)c4ccc5c(Cl)c6c(nc5c4)CN(C)CC6)Cc4ccccc4)CC3)cnc2c1` [Compound 42], for which the IC50 lay within 0.1 to 1 µM.

Turning to `CN1CCN(CCC(=O)Nc2ccc3c(=O)n(CC4(O)CCN(C(=O)C(CCCNC(=O)c5ccc6c(Cl)cc(-c7cccnc7)nc6c5)Cc5ccccc5)CC4)cnc3c2)CC1` (stereo not drawn) [Compound 14, N-(4-benzyl-5-(4-hydroxy-4-((7-(3-(4-methylpiperazin-1-yl)propanamido)-4-oxoquinazolin-3(4H)-yl)methyl)piperidin-1-yl)-5-oxopentyl)-4-chloro-2-(pyridin-3-yl)quinoline-7-carboxamide], the concentration for half-maximal inhibition (IC50) is 0.1 to 1 µM.

As to `CCS(=O)(=O)Nc1ccccc1-c1ccc(C(=O)N2CCC(O)(Cn3cnc4cc(NC(=O)CCN5CCN(C)CC5)ccc4c3=O)CC2)cc1` [Compound 25], the IC50 is more than 1 µM.

For the compound `CN1CCN(CCC(=O)Nc2ccc3c(=O)n(CC4(O)CCN(C(=O)[C@H](CCCNC(=O)c5ccc6c(Cl)cc(-c7cnn(CC(F)(F)F)c7)nc6c5)Cc5ccccc5)CC4)cnc3c2)CC1` [Compound 19], the IC50 was more than 1 µM.

As to `COc1cc2c(=O)n(CC3(O)CCN(C(=O)[C@H](CCCNC(=O)c4ccc5c(Cl)cc(C6CC6)nc5c4)Cc4ccccc4)CC3)cnc2cc1OCCCN(C)C` [Compound 138], the half-maximal inhibitory concentration (IC50) was in the range of 0.02 to 0.1 µM.

Consider `C=CC(=O)Nc1ccc(C(F)(F)F)cc1N1CCC(C(=O)N2CCC(O)(Cn3cnc4cc(NC(=O)CCN5CCN(C)CC5)ccc4c3=O)CC2)C(c2ccccc2)C1` (stereo not drawn) [Compound 104], for which the concentration for half-maximal inhibition (IC50) fell in the range of 0.1 to 1 µM.

In the case of `CN(C)CCCOc1ccc2c(=O)n(CC3(O)CCN(C(=O)[C@@H](CCCNC(=O)c4ccc5c(Cl)c(CO)cnc5c4)Cc4ccccc4)CC3)cnc2c1`, the IC50 is less than 0.02 µM.

Regarding `Cc1cc(Cl)n2cc(C(=O)NCCCC(Cc3ccccc3)C(=O)N3CCC(O)(Cn4cnc5cc(NC(=O)CCN(C)C)ccc5c4=O)CC3)cc2n1` (stereo not drawn) [Compound 45, N-(4-benzyl-5-(4-((7-(3-(dimethylamino)propanamido)-4-oxoquinazolin-3(4H)-yl)methyl)-4-hydroxypiperidin-1-yl)-5-oxopentyl)-4-chloro-2-methylpyrrolo[1,2-a]pyrimidine-7-carboxamide], the IC50 is more than 1 µM.

With `CN(C)CCC(=O)Nc1ccc2c(=O)n(CC3(O)CCN(C(=O)C(CCCNC(=O)c4ccc5c(Cl)nccc5c4)Cc4ccccc4)CC3)cnc2c1` (stereo not drawn) [Compound 68], the IC50 is more than 1 µM.

Turning to `O=C(NCCC1CC[C@@H](C(=O)N2CCC(O)(Cn3cnc4cc(-c5ncc(CN6CCNCC6)o5)ccc4c3=O)CC2)[C@H](c2ccccc2)C1)c1ccc2c(Cl)ccnc2c1` (stereo partly drawn), the IC50 was in the range of 0.02 to 0.1 µM.

In the case of `CN1CCN(CCC(=O)Nc2ccc3c(=O)n(CC4(O)CCN(C(=O)[C@H](CCCNC(=O)c5ccc6c(Cl)c7c(nc6c5)CCCC7)Cc5ccccc5)CC4)cnc3c2)CC1`, the concentration for half-maximal inhibition (IC50) fell in the range of 0.1 to 1 µM.

Regarding `CN(C)CCC(=O)Nc1ccc2c(=O)n(CC3(O)CCN(C(=O)[C@H]4CCN(CCNC(=O)c5ccc6c(Cl)ccnc6c5)C[C@@H]4c4ccccc4)CC3)cnc2c1` [Compound 74], the 50% inhibitory concentration (IC50) is more than 1 µM.
